One data set addresses T1, ML1b receptor (Homo sapiens, UniProt P49286).
T1 construct: expressed in transfected cells
T1 sequence (P49286 1-362): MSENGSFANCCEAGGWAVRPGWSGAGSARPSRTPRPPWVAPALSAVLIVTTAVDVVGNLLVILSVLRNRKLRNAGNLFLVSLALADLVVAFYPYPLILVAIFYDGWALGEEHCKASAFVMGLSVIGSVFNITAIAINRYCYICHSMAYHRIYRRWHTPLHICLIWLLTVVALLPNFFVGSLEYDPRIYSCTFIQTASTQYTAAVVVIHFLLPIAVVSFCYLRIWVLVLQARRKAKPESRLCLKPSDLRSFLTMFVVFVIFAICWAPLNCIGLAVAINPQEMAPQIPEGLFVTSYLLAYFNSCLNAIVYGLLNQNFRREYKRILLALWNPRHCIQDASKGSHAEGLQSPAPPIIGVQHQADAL
The data set can be described thus: Melatonergic receptor binding activity, 2-[125I]-iodomelatonin, ML1b. As to conditions: 37° C. for 1 hour. The method, then:
(§1) Melatonergic Receptor Binding Activity
(§2) (a) TME=50 mM Tris buffer containing 12.5 mM MgCl2, and 2 mM EDTA, pH 7.4 at 37° C., with concentrated HCl.
(§3) (b) Wash buffer: 20 mM Tris base containing 2 mM MgCl2, pH 7.4 at room temperature.
(§4) (c) 10^−4 M melatonin (10^−5 M final concentration).
(§5) (d) 2-[^125I]-iodomelatonin, […] final concentration.
(§6) 3. Incubation: 37° C. for 1 hour. Reaction is terminated by filtration. Filters were washed 3 times.
(§7) The compounds of the present invention have affinity for receptors of the endogenous pineal hormone, melatonin, as determined in a receptor binding assays described above in Tables I to V for the ML1a and ML1b (human) receptors. Melatonin is involved in the regulation of a variety of biological rhythms and exerts its biological effects via interaction with specific receptors. There is evidence that administration of melatonin agonists are of clinical utility in the treatment of various conditions regulated by melatonin activity. Such conditions include depression, jet-lag, work-shift syndrome, sleep disorders, glaucoma, some disorders associated with reproduction, cancer benign prostatic hyperplasia, immune disorders and neuroendocrine disorders.

A further data set deals with T2, ML1a receptor (Homo sapiens, UniProt P48039).
T2 construct: expressed in transfected cells; pcDNA3)
T2 sequence (P48039 whole entry): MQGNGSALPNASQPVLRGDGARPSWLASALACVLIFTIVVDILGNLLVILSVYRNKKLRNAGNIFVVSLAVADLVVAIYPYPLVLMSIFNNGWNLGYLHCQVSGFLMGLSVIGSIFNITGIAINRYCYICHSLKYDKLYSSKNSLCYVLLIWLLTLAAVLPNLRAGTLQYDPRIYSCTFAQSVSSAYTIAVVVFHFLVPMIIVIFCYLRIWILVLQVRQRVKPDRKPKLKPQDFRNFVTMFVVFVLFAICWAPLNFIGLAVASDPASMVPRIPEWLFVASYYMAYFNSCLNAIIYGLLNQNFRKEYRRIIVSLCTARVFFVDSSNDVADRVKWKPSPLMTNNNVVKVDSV
The experiment in a line: Melatonergic receptor binding activity, 2-[125I]-iodomelatonin, ML1a. As to conditions: membrane homogenates of NIH-3T3 cells, 37° C. for 1 hour. The protocol: as §1, §2, §3, §4, §5
2. Membrane Homogenates: The melatonin ML1α receptor cDNA was subcloned into pcDNA3 and introduced into NIH-3T3 cells using Lipofectamine. Transformed NIH-3T3 cells resistant to geneticin (G-418) were isolated, and single colonies expressing high levels of 2-[^125I]-iodomelatonin binding were isolated. Cells are maintained in DMEM supplemented with 10% calf serum and G-418 (0.5 g/liter). Cells are grown to confluency in T-175 flasks, scraped using Hank's balanced salt solution, and frozen at −80° C. For preparing membrane homogenates, pellets are thawed on ice, and re-suspended in TME buffer in the presence of 10 μg/ml aprotinin and leupeptin, and 100 μM phenylmethylsulfonylfluoride. The cells were then homogenized using a dounce homogenizer, and centrifuged. The resulting pellet was re-suspended with dounce homogenizer in TME (supplemented with the above protease inhibitors) and frozen. On the day of assay, a small aliquot was thawed on ice and re-suspended in the ice cold TME (1:50-1:100 v/v) and held on ice until assayed.
as §6, §7

pIC50: −log10 of the molar value. A value given as a limit tells only on which side of the number the result lay.

Compound `CC(=O)NC[C@@H]1C[C@H]1c1cccc2c1C[C@@H](CCCCc1ccccc1)O2` [Example 42, N-({2-[(2R)-2-(4-Phenylbutyl)(2,3-dihydrobenzo[b]furan-4-yl)]-(1R,2R)cyclopropyl}methyl)acetamide] registered a melting point of 65 to 66 °C. For the same compound, on ML1b receptor (Table V), the pIC50 was greater than 8.00. For the same compound, the pIC50 at ML1a receptor (Table V) was greater than 8.00.

`CCNC(=O)NCC1CC1c1c(Cl)ccc2c1CC(CCCCc1ccccc1)O2` [Example 48, N-({2-[2R)-5-Chloro-2-(4-phenylbutyl)(2,3-dihydrobenzo[b]furan-4-yl)]-(1R,2R)cyclopropyl}methyl)(ethylamino)carboxamide]: the melting point lay within 126 to 128 °C. Also, at ML1b receptor (Table V), the pIC50 is 6.60 to 8.00. On ML1a receptor (Table V), the pIC50 was 6.60 to 8.00.

Regarding `CC(=O)NCCCc1cccc2c1C[C@H](CCCCc1ccccc1)O2` (stereo in doubt) [Example 1, N-[3-[2-(4-Phenylbutyl)-2,3-dihydrobenzofuran-4-yl]propyl]acetamide], the melting point lay in the range of 40 to 41 °C. Also, the pIC50 on ML1b receptor (Table I) is 6.60 to 8.00. For the same compound, on ML1a receptor (Table I), the pIC50 was greater than 8.00.

`CCCC(=O)NCCCc1cccc2oc(CCCCc3ccc(C(F)(F)F)cc3)cc12` [Example 17, N-[3-[2-[4-(4-Trifluoromethylphenyl)butyl]benzofuran-4-yl]propyl]-butyramide]: the pIC50 on ML1b receptor (Table III) and on ML1a receptor (Table III) was 6.60 to 8.00 in each case.

For the compound `CCNC(=O)NC[C@@H]1C[C@H]1c1cccc2oc(CCCCc3ccccc3)cc12` (stereo in doubt) [Example 35, N-({(1R,2R)-2-[2-(4-Phenylbutyl)benzo[b]furan-4-yl]-cyclopropyl}methyl)(ethylamino)carboxamide], the pIC50 on ML1b receptor (Table IV) and at ML1a receptor (Table IV) was 6.60 to 8.00 each time.

Consider `O=C(NCCCc1cccc2c1C[C@H](CCCCc1ccccc1)O2)C1CC1` (stereo in doubt) [Example 5, N-[3-[2-(4-Phenylbutyl)-2,3-dihydrobenzofuran-4-yl]propyl]cyclopropanecarboxamide], for which the melting point was 63 to 64 °C. At ML1b receptor (Table I), this compound gave a pIC50 of 6.60 to 8.00. This compound also gave a pIC50 at ML1a receptor (Table I) greater than 8.00.

The compound `O=C(NCCCc1cccc2oc(CCCCc3ccccc3)cc12)C1CC1` [Example 7, N-[3-[2-(4-Phenylbutyl)benzofuran-4-yl]propyl]cyclopropanecarboxamide] showed a melting point of 70 to 71 °C. The compound further gave a pIC50 on ML1b receptor (Table II) of 6.60 to 8.00. Further, the pIC50 at ML1a receptor (Table II) was 6.60 to 8.00.

Consider `CCNC(=O)NC[C@@H]1C[C@H]1c1cccc2c1C[C@@H](CCCCc1ccccc1)O2` [Example 47, N-({2-[(2R)-2-(4-Phenylbutyl)(2,3-dihydrobenzo[b]furan-4-yl)]-(1R,2R)cyclopropyl}methyl)(ethylamino)carboxamide], for which the melting point was 69 to 70 °C. At ML1b receptor (Table V), this compound had a pIC50 of 6.60 to 8.00. This compound had a pIC50 at ML1a receptor (Table V) of 6.60 to 8.00.

For the compound `CC(=O)NC[C@@H]1C[C@H]1c1cccc2oc(CCCCc3ccc(F)cc3)cc12` (stereo in doubt) [Example 36, N-[((1R,2R)-2-{2-[4-(4-Fluorophenyl)butyl]benzo[b]furan-4-yl}-cyclopropyl)methyl]acetamide], the pIC50 on ML1b receptor (Table IV) is 6.60 to 8.00; at ML1a receptor (Table IV) it was greater than 8.00.

As for `CC(C)C(=O)NCCCc1cccc2c1C[C@H](CCCCc1ccccc1)O2` (stereo in doubt) [Example 4, N-[3-[2-(4-Phenylbutyl)-2,3-dihydrobenzofuran-4-yl]propyl]-2-methylpropionamide], the pIC50 at ML1b receptor (Table I) is 6.60 to 8.00; on ML1a receptor (Table I), greater than 8.00.

Regarding `CCCC(=O)NC[C@@H]1C[C@H]1c1cccc2oc(CCCCc3ccc(F)cc3)cc12` (stereo in doubt) [Example 38, N-[((1R,2R)-2-{2-[4-(4-Fluorophenyl)butyl]benzo[b]furan-4-yl}-cyclopropyl)methyl]butanamide], the pIC50 on ML1b receptor (Table IV) and at ML1a receptor (Table IV) was 6.60 to 8.00 in each case.

Take `CCCC(=O)NC[C@@H]1C[C@H]1c1cccc2c1C[C@@H](CCCCc1ccccc1)O2` [Example 44, N-({2-[(2R)-2-(4-Phenylbutyl)(2,3-dihydrobenzo[b]furan-4-yl)]-(1R,2R)cyclopropyl}methyl)butanamide]: the pIC50 on ML1b receptor (Table V) and on ML1a receptor (Table V) was greater than 8.00 throughout.

For `CC(=O)NCCCc1cccc2oc(CCCCc3ccc(C(F)(F)F)cc3)cc12` [Example 15, N-[3-[2-[4-(4-Trifluoromethylphenyl)butyl]benzofuran-4-yl]propyl]-acetamide], the results for the pIC50 at ML1b receptor (Table III) and on ML1a receptor (Table III) were less than 6.60 and 6.60 to 8.00, respectively.

`CCCC(=O)NC[C@H]1C[C@@H]1c1cccc2oc(CCCCc3ccccc3)cc12` (racemic) [Example 32, N-({(1R,2R)-2-[2-(4-Phenylbutyl)benzo[b]furan-4-yl]-cyclopropyl}methyl)butanamide]: the pIC50 at ML1b receptor (Table IV) and at ML1a receptor (Table IV) was 6.60 to 8.00 in each case.

On to `CC(C)C(=O)NCCCc1cccc2oc(CCCCc3ccc(C(F)(F)F)cc3)cc12` [Example 18, N-[3-[2-[4-(4-Trifluoromethylphenyl)butyl]benzofuran-4-yl]propyl]-isobutyramide], for which the pIC50 is less than 6.60 at ML1b receptor (Table III) and 6.60 to 8.00 on ML1a receptor (Table III).

Regarding “N-3-(2-(3-Phenylprop-1-yl)benzofuran-3-yl)prop-1-yl Cyclopropanecarboxamide [Example 22]”, the negative logarithm of the IC50 (pIC50) is less than 6.60 at ML1b receptor (Table III) and 6.60 to 8.00 at ML1a receptor (Table III).

Take “N-3-(2-(2-Phenyleth-1-yl)benzofuran-3-yl)prop-1-yl-cyclopropanecarboxamide [Example 26]”: the negative logarithm of the IC50 (pIC50) at ML1b receptor (Table III) and on ML1a receptor (Table III) was 6.60 to 8.00 in each case.

Consider `O=C(NCCCc1cccc2oc(CCCCc3ccc(C(F)(F)F)cc3)cc12)C1CC1` [Example 13, N-[3-[2-[4-(4-Trifluoromethylphenyl)butyl]benzofuran-4-yl]propyl]-cyclopropane Carboxamide], for which the pIC50 at ML1b receptor (Table III) and on ML1a receptor (Table III) was less than 6.60 each time.

Turning to “N-{3-[3-Chloro-2-(4-phenylbutyl)benzo[b]furan-4-yl]-propyl}ethoxycarboxamide [Example 27]”, the negative-log IC50 (pIC50) at ML1b receptor (Table III) and on ML1a receptor (Table III) was less than 6.60 throughout.

For orientation: pIC50 means the IC50 on a negative log10 scale, so that one unit is a factor of ten. Higher therefore signals a low IC50. For orientation: melting point means the temperature of the solid-liquid transition.

(Values after US6569894B1, “Arylalkylbenzofuran derivatives as melatonergic agents” (Bristol-Myers Squibb Company, priority 2001, dated 2003).)
